{"source": "patent US9447083B2", "about": "“N-acylhydrazone derivatives for selective T cell inhibitor and anti-lymphoid malignancy drug” (CHONG KUN DANG PHARMACEUTICAL CORP., priority 2012, dated 2016)", "key": {"[1]": {"test_system": "KMS20", "assay": "Apoptosis of lymphoid malignancy cell lines: KMS20", "type": "cell-based", "conditions": "KMS-20; KMS20, Multiple myeloma, 24 hours; read-out: Administration Dose (mean ± SD, μmol/L) Lethal Dose 50 (Apoptosis)"}, "[2]": {"test_system": "IM9", "assay": "Apoptosis of lymphoid malignancy cell lines: IM9", "type": "cell-based", "conditions": "Homo sapiens, IM-9, 24 h, read-out: Administration Dose (mean ± SD, μmol/L) Lethal Dose 50 (Apoptosis)", "procedure": "(§1) Each of the acute T cell leukemia cell lines Jurkat, Molt4 and CCRF-CEM, the acute B cell leukemia cell line Raji and the […] cell lines KMS11, KMS12BM, KMS26, KMS28BM, and IM9 was re-suspended in 10% FBS-containing RPMI medium at a concentration of 1.5×10^5 cells/mL, and 200 μL of each of the cell suspensions was cultured in a flat bottom 96-well plate (Costar). The acute NK cell lymphoma cell line NK-92MI was re-suspended in α-MEM medium (supplemented with 20% FBS, 1×MEM vitamine solution, 50 μM 2-mercaptoethanol and 1× penicillin/streptomycin) at a concentration of 1.5×10^5 cells/mL, and 200 μL of the cell suspension was cultured in a flat bottom 96-well plate. The cells in each well was treated with 10 μL of each of 0.1, 0.25, 0.5, 0.75 and 1 μM of the compound diluted with RPMI medium, followed by that the cells were incubated in a 5% CO2 incubator at 37° C. for 24 hours. In a vehicle control group, cells were treated with 10 μL of medium containing 0.05% dimetylsulfoxide (DMSO, Sigma).\nThe cells were collected, and then the apoptosis thereof was analyzed by a flow cytometer after staining with Annexin V-7-AAD. The incubated cells were collected, placed in a 5-mL FACS tube (BD Falcon) and washed with 1 mL of fluorescence activated cell sorting (FACS) buffer (1%. FBS and 0.1% sodium azaide in PBS). The cells were re-suspended in 0.1 mL of FACS buffer, followed by that the cells were treated and stained with phycoerythrin-Annexin V at room temperature for 10 minutes. After 10 minutes of staining, the cells were treated and stained with 7-AAD at room temperature for 5 minutes. The stained cells were suspended in 0.3 mL of FACS buffer, and then analyzed by a flow cytometer. […] Thus, compounds 065, 108, 229 and 457 of the present invention can be used as a novel anti-lymphoid malignancy drug."}, "[3]": {"test_system": "acute graft-versus-host disease", "assay": "Acute graft-versus-host disease, mouse model of allogeneic bone marrow transplantation", "type": "in vivo", "conditions": "25 mg/kg intraperitoneally daily for 10 days", "excerpt": "Lymph nodes, spleens, both femurs and tibias were aseptically collected from normal C57BL/6 mice (8-12 week old, female, 20-23 g), and T cells were isolated from the lymph nodes and spleens in the same manner as described in Experimental Example 2 and were re-suspended in PBS at a concentration of 8×10^7 cells/mL. The femurs and tibias were cut at the ends, and the bone marrow was flushed from femurs and tibias with RPMI medium using a syringe (21G for femur and 26G for tibia) to extract the marrow, which was then suspended and passed through a cell strainer to make a single cell suspension. The bone marrow cell suspension was centrifuged at 1200 rpm for 5 minutes, and the supernatant was removed, then the cells were added to 1 mL of ACK lysis buffer and vortexed for 1 minute, followed by washing with RPMI medium. […] The incubated cell suspension was added with 5 mL of MACS buffer, centrifuged for 5 minutes, washed, and then re-suspended in 2 mL of MACS buffer. The suspended cells were placed in the autoMACS Pro Separator, and T cells bound to the CD90.2 microbeads were removed. The separated T cell-depleted bone marrow cells (TCD-BM) were washed with PBS and re-suspended in PBS at a concentration of 1×10^8 cells/mL. Normal BDF1 mice (10-12 week old, female, 20-23 g) were irradiated with 850 rad of γ radiation using an irradiator, and then 100 μL of a graft obtained by mixing the C57BL/6 mouse T cells and the TCD-BM at a ratio of 1:1 was injected into the tail vein of the BDF1 mice. In a group treated with compound 229 of the present invention, compound 229 was completely dissolved in a Cremophor EL-ethanol mixture (1:1, v/v) in an amount corresponding to 15% (v/v) of the administration volume, after which the compound solution was diluted in PBS, and the dilution was administered intraperitoneally to each mouse at a dose of 25 mg/kg daily for 10 days from the day of the graft injection. Meanwhile, Tacrolimus that is a currently clinically used immunosuppressive agent was administered to mice of another group in the same amount as compound 229 in order to compare the inhibitory effect on acute graft-versus-host disease, and mice of a vehicle control group were administered with 200 μL of a Cremophor EL-ethanol-PBS (7.5:7.5:85, v/v/v) in the same manner as the treated groups. Then, the survival of mice was monitored daily, and the severity of GVHD was assessed twice a week with clinical GVHD scoring system for each a decrease in weight loss, hunched posture, decreased activity, fur ruffling and skin lesions. Each parameters were scored on a 3-point (0 to 2) scale."}, "[4]": {"test_system": "Jurkat T cells", "assay": "Pro-apoptotic activity on Jurkat T cells (FITC-Annexin V / 7-AAD flow cytometry)", "type": "cell-based", "conditions": "Homo sapiens, 72 hours, cells stained with FITC-Annexin V and 7-AAD among total cells, read-out: Cell Apoptosis Effect to Jurkat T Cell (% in 5 μM)", "in_short": "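Jurkat cells at 1.5×10^5 cells/mL in RPMI/10% FBS treated with compounds at […] or 5 μM final for 72 h at 37° C, vehicle containing 1% DMSO. Stained with FITC-Annexin V and 7-AAD for 15 min at room temperature in pH 7.4 Hepes binding buffer. Apoptosis = % double-stained cells by flow cytometry.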"}, "[5]": {"test_system": "KMS11", "assay": "Apoptosis of lymphoid malignancy cell lines: KMS11", "type": "cell-based", "conditions": "Homo sapiens, KMS-11; KMS11, Multiple myeloma, 24 hours; read-out: Administration Dose (mean ± SD, μmol/L) Lethal Dose 50 (Apoptosis)", "procedure": "as §1, with “In a vehicle control group, cells were treated with 10 μL of medium containing 0.05% dimetylsulfoxide (DMSO, Sigma).” left out\nThe cells were collected, and then the apoptosis thereof was analyzed by a flow cytometer after staining with Annexin V-7-AAD. The incubated cells were collected, placed in a 5-mL FACS tube (BD Falcon) and washed with 1 mL of fluorescence activated cell sorting (FACS) buffer (1%. FBS and 0.1% sodium azaide in PBS). […] The stained cells were suspended in 0.3 mL of FACS buffer, and then analyzed by a flow cytometer. […]"}}, "note": "“And” between values parts separate entries of the source, which are not always exact repeats. Equal values may be shown once.", "data": [{"smiles": "Cc1cc(C)c(OCC(=O)N/N=C/c2ccc3cc[nH]c3c2)c(C2CCOC2)c1", "note": "(stereo not shown) [Compound 229, (E)-N′-((1H-indol-6-yl)methylene)-2-(2,4-dimethyl-6-(tetrahydrofuran-3-yl)phenoxy)acetohydrazide]", "values": [{"measurement": "EC50", "setting": "[1]", "result": "0.74 ± 0.05", "unit": "µmol/L"}, {"measurement": "EC50", "setting": "[2]", "result": "0.9 ± 0.03", "unit": "µmol/L"}, {"measurement": "severity of GVHD (clinical scoring system)", "setting": "[3]", "result": "slight symptoms of GVHD"}, {"measurement": "survival rate", "setting": "[3]; final (day 70), vehicle 10%", "result": 80, "unit": "%"}, {"measurement": "mouse death, days after cell transplantation", "setting": "[3]; vehicle from 29 days", "result": "35 days and 46 days"}, {"measurement": "cytotoxicity at 5 µM", "setting": "[4]", "result": 100, "unit": "%"}, {"measurement": "EC50", "setting": "[5]", "result": "0.35 ± 0.09", "unit": "µmol/L"}]}]}
